The text below walks through data of patent publication US20230114728A1 (Venatorx Pharmaceuticals, Inc., priority 2019, published 2023).

≈ marks a conversion by molar mass, not a printed value. Where only a bound is given, the exact number is not on record here.

What all share (experiment): Broth microdilution MIC in CAMHB
Common to all, as to assay type: cell-based

The subject of assay [1] is A. baumannii ATCC 19606. The note with it: Acinetobacter baumannii, ATCC19606; MHB; read-out: Minimum Inhibitory Concentration, A. baumannii ATCC 19606. The method, boiled down:
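CLSI microdilution; CAMHB; inoculum 2-8×10^5 CFU/mL from 3-5 h 37° C culture; 2-fold compound series; 16-20 h, 37° C; MIC = lowest well without visible growth.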

Assay [2] concerns E. coli 901C. As to conditions: Escherichia coli; E. coli 901C (hyper-permeable); MHB; read-out: Minimum Inhibitory Concentration, E. coli 901C. The method, boiled down: (§1)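 MIC, read by eye, is the lowest compound concentration giving no bacterial growth after 16-20 h at 37° C. Test compounds are serially diluted 2-fold in CAMHB and seeded with 2-8×10^5 CFU/mL of bacteria taken from a 3-5 h shaking culture, following CLSI methods.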

Assay [3] concerns E. coli AG100A. The note with it: Escherichia coli, read-out: Minimum Inhibitory Concentration, E. coli AG100A. The method, boiled down:
as §1

For assay [4], the system named is E. coli AG100. As to conditions: Escherichia coli; E. coli AG100 (wild-type parent); MHB; read-out: Minimum Inhibitory Concentration, E. coli AG100. The method, boiled down:
as §1

The test system of assay [5] is E. coli ATCC 25922. As to conditions: Escherichia coli, ATCC25922; E. coli ATCC 25922; MHB; read-out: Minimum Inhibitory Concentration, E. coli 25922. The method in brief: as §1
Assay [6] deals with E. coli D22. The note with it: Escherichia coli; E. coli D22 (hyper-permeable); MHB; read-out: Minimum Inhibitory Concentration, E. coli D22. The method, boiled down: as §1
For assay [7], the system named is K. pneumoniae 848844 producing SHV-11 and KPC-2. The note with it: Klebsiella pneumoniae, read-out: Minimum Inhibitory Concentration, K. pneumoniae 848844. The method in brief:
as §1

In assay [8] the test system is K. pneumoniae SI-117 producing VIM-1. As to conditions: Klebsiella pneumoniae, read-out: Minimum Inhibitory Concentration, K. pneumoniae SI-117. The method in brief:
as §1

Assay [9] has as its system K. pneumoniae UMM producing SHV-5 and KPC-2. As to conditions: Klebsiella pneumoniae, read-out: Minimum Inhibitory Concentration, K. pneumoniae UMM. The method in brief:
as §1

In assay [10] the test system is P. aeruginosa (ΔmexAB-oprM). The note with it: Pseudomonas aeruginosa, read-out: Minimum Inhibitory Concentration, P. aeruginosa ΔmexAB-OprM. The method in brief:
as §1

In assay [11] the test system is P. aeruginosa ATCC 27853. The note with it: Pseudomonas aeruginosa, ATCC27853; MHB; read-out: Minimum Inhibitory Concentration, P. aeruginosa ATCC 27853. The method in brief:
as §1

Assay [12] relates to P. aeruginosa ATCC 35151. The note with it: Pseudomonas aeruginosa, ATCC35151; MHB; hyper-permeable strain; read-out: Minimum Inhibitory Concentration, P. aeruginosa ATCC 35151. The method, boiled down: as §1

As to `CCN1CCN(C(=O)NC(C(=O)N[C@H]2Cc3cccc(C(=O)O)c3OB2O)c2c(F)cc(NC(=O)NC)cc2F)C(=O)C1=O` (stereo partly drawn) [Example 213, (3R)-3-(2-(2,6-difluoro-4-(3-methylureido)phenyl)-2-(4-ethyl-2,3-dioxopiperazine-1-carboxamido)acetamido)-2-hydroxy-3,4-dihydro-2H-benzo[e][1,2]oxaborinine-8-carboxylic acid], the MIC in assay [1] is > 128 µg/mL; in assay [2] it was < 0.25 µg/mL; in [3], 2 to 4 µg/mL (≈ 3.24 to 6.49 µM); in [4], 32 to 64 µg/mL (≈ 51.9 to 104 µM); in assay [5], 32 to 64 µg/mL (≈ 51.9 to 104 µM); in assay [6], 2 to 4 µg/mL (≈ 3.24 to 6.49 µM). Moreover, the MIC in assay [7] was > 128 µg/mL; in assay [8], > 128 µg/mL; in assay [9], 32 to 64 µg/mL (≈ 51.9 to 104 µM); in [10] it was 2 to 4 µg/mL (≈ 3.24 to 6.49 µM); in [11] it was > 128 µg/mL; in [12], 0.5 to 1 µg/mL (≈ 0.811 to 1.62 µM).
